Structures can show the parent of a compound that is named as a salt.
Experiments:
[1] = Browning (degradation) reaction of bromocriptine with excipients in heated aqueous suspension; type: physicochemical
Method: A series of reaction vessels were prepared containing various combinations of bromocriptine mesylate, Mg stearate, and/or lactose, with or without citric acid, in aqueous suspension and reacted at 60° C. for 55 hours. Additionally, samples were prepared wherein the Mg stearate was replaced/substituted with stearic acid.
2 ml of distilled water was added to the samples, which were then mixed by vortexing, placed in a reaction chamber with thermostat set at 50° C. for 24 hours, then (after 24 hours) set at 60° C. The color change of the sample solutions/mixtures were evaluated by comparing the color of the solution with a Standardized Color Chart; the color intensities of the sample solutions/mixtures (from clear to dark brown) was graded at specified time points from time 0 to time 55 hours (see FIG. 2). In FIG. 2, a number “0” indicates a clear solution or white suspension; a number “40” represents the darkest solution/suspension observed.

[2] = Heat and humidity stability of formulations versus traditional formulation (Table 11); settings: 40 C and 75% RH; short chain saccharide substituted for lactose
Method: (§1) Effect of constituents on the stability and solubility of bromocriptine formulations. […] The stability and solubility of the formulations are assessed versus a traditional formulation of bromocriptine mesylate as described in Table 1.

[3] = Water solubility of formulations versus traditional formulation (Table 11); settings: 20 C
Method: as §1

Row | SMILES | bromocriptine degradation and browning reaction ([1]; addition of citric acid and substitution of Mg stearate with stearic acid) | bromocriptine degradation and browning reaction ([1]; addition of citric acid, Mg stearate alone or Mg stearate and lactose) | browning reaction ([1]; bromocriptine exposed to both Mg stearate and lactose) | browning reaction ([1]; bromocriptine with Mg stearate in aqueous environment, absence of lactose) | bromocriptine degradation ([1]; substitution of Mg stearate with solid castor oil, compared with stearic acid) | bromocriptine degradation and browning reaction ([1]; substitution of Mg stearate with stearic acid, with or without lactose) | Relative Improvement In Heat & Humidity Stability Versus Traditional Bromocriptine Mesylate Pharmaceutical Formulation [2] | Relative Improvement in Water Solubility Versus Traditional Bromocriptine Mesylate Pharmaceutical Formulation ([3]; fatty acid or triglyceride + short chain saccharide) | Relative Improvement in Water Solubility Versus Traditional Bromocriptine Mesylate Pharmaceutical Formulation ([3]; fatty acid or triglyceride substituted for Mg stearate) | Relative Improvement in Water Solubility Versus Traditional Bromocriptine Mesylate Pharmaceutical Formulation ([3]; short chain saccharide substituted for lactose)
1 | CC(C)C[C@H]1C(=O)N2CCC[C@H]2[C@]2(O)O[C@](NC(=O)[C@@H]3C=C4c5cccc6[nH]c(Br)c(c56)C[C@H]4N(C)C3)(C(C)C)C(=O)N12 [bromocriptine, (5′α)-2-bromo-12′-hydroxy-2′-(1-methylethyl)-5′-(2-methylpropyl)-ergotaman-3′,6′,18-trione] | attenuated bromocriptine degradation and the browning reaction by the greatest magnitude | attenuated bromocriptine degradation and the browning reaction | A more intense browning reaction occurred | a browning product was produced | attenuated bromocriptine degradation to an even greater extent | attenuated bromocriptine degradation and the browning reaction |  |  |  | 
2 | CC(C)C[C@H]1C(=O)N2CCC[C@H]2[C@]2(O)O[C@](NC(=O)[C@@H]3C=C4c5cccc6[nH]c(Br)c(c56)C[C@H]4N(C)C3)(C(C)C)C(=O)N12 [Bromocriptine Mesylate, (5′α)-2-bromo-12′-hydroxy-2′-(1-methylethyl)-5′-(2-methylpropyl)-ergotaman-3′,6′,18-trione monomethanesulfonate salt] |  |  |  |  |  |  | + | − | − | −

From patent US11510921B2, “Bromocriptine formulations” (VEROSCIENCE LLC, priority 2017, dated 2022)
